Test: xn = mol fraction of the nth substance listed

N#C[S-].[NH4+] + CCOS(=O)(=O)[O-].CC[n+]1ccn(C)c1
viscosity [mPa·s], 101 kPa
Details | x1 = 0.0235 | x1 = 0.1553 | x1 = 0.3025 | x1 = 0.4042 | x1 = 0.5205 | x1 = 0.565 | x1 = 0.5997
298.15 K | 103.1 | 150 | 209.3 | 231.1 | 223.9 | 215.9 | 208.9
303.15 K | 81.26 | 118 | 163.3 | 178.7 | 173.4 | 172.5 | 168.2
308.15 K | 65.16 | 94.31 | 129.6 | 140.9 | 135.3 | 133.9 | 133.7
313.15 K | 53.09 | 76.57 | 104.6 | 112.9 | 107.5 | 106 | 105.4
318.15 K | 43.86 | 63.03 | 85.57 | 91.83 | 86.87 | 85.31 | 84.57
323.15 K | 36.68 | 52.56 | 70.9 | 75.56 | 71.22 | 69.75 | 68.92

FB(F)F + CCOc1ccccc1
viscosity [mPa·s], 101 kPa
Details | 293.15 K | 298.15 K | 303.15 K
x1 = 0.00901 | 1.29 | 1.18 | 1.08
x1 = 0.1455 | 1.53 | 1.39 | 1.27
x1 = 0.2874 | 2.42 | 2.17 | 1.96
x1 = 0.3269 | 2.79 | 2.51 | 2.25
x1 = 0.3742 | 3.38 | 3.01 | 2.68
x1 = 0.3817 | 3.48 | 3.1 | 2.74
x1 = 0.4143 | 4 | 3.52 | 3.08
x1 = 0.4429 | 4.57 | 3.97 | 3.5
x1 = 0.456 | 4.87 | 4.24 | 3.7
x1 = 0.4744 | 5.39 | 4.69 | 4.06
x1 = 0.4962 | 6.02 | 5.19 | 4.48

N#C[S-].[NH4+] + CCn1cc[n+](C)c1.N#C[S-]
viscosity [mPa·s], 100 kPa
Details | 298.15 K | 303.15 K | 308.15 K | 313.15 K | 318.15 K | 323.15 K
x1 = 0.039 | 25.91 | 21.97 | 18.84 | 16.11 | 14.28 | 12.59
x1 = 0.099 | 29.91 | 25.16 | 21.4 | 18.21 | 16 | 14.03
x1 = 0.1395 | 31.58 | 26.49 | 22.47 | 19.09 | 16.71 | 14.62

Brc1ccccc1 + CN1CCCC1=O
viscosity [mPa·s], 101 kPa
Details | x2 = 0.1084 | x2 = 0.2149 | x2 = 0.3193 | x2 = 0.4219 | x2 = 0.5226 | x2 = 0.6215 | x2 = 0.7186 | x2 = 0.8141 | x2 = 0.9078
303.15 K | 1.068 | 1.146 | 1.22 | 1.284 | 1.344 | 1.396 | 1.441 | 1.484 | 1.522
308.15 K | 1.023 | 1.089 | 1.148 | 1.201 | 1.25 | 1.29 | 1.326 | 1.358 | 1.382
313.15 K | 0.9408 | 1.005 | 1.061 | 1.113 | 1.159 | 1.199 | 1.236 | 1.268 | 1.295
318.15 K | 0.8512 | 0.9073 | 0.9593 | 1.008 | 1.052 | 1.09 | 1.126 | 1.157 | 1.184

BrCCBr + CN1CCC[C@H]1c1cccnc1
viscosity [mPa·s], 101.33 kPa
Details | x2 = 0.121 | x2 = 0.2341 | x2 = 0.3736 | x2 = 0.4915 | x2 = 0.613 | x2 = 0.7575 | x2 = 0.8734
298.15 K | 1.765 | 1.939 | 2.233 | 2.523 | 2.804 | 3.055 | 3.341
323.15 K | 1.2 | 1.383 | 1.466 | 1.599 | 1.714 | 1.838 | 1.884

Brc1ccccc1 + CN(C)C=O
viscosity [mPa·s], 101.33 kPa
Details | x2 = 0.0879 | x2 = 0.2075 | x2 = 0.3085 | x2 = 0.4055 | x2 = 0.5063 | x2 = 0.6027 | x2 = 0.6877 | x2 = 0.8054 | x2 = 0.9001 | x2 = 0.9002
303.15 K | 0.982 | 0.973 | 0.963 | 0.949 | 0.931 | 0.905 | 0.879 | 0.831 | – | 0.789
313.15 K | 0.889 | 0.879 | 0.87 | 0.854 | 0.838 | 0.816 | 0.792 | 0.749 | 0.711 | –

C1COCCO1 + CN(C)C=O
viscosity [mPa·s], 101 kPa
Details | x2 = 0.1181 | x2 = 0.2316 | x2 = 0.3406 | x2 = 0.4455 | x2 = 0.5465 | x2 = 0.6439 | x2 = 0.7377 | x2 = 0.8282 | x2 = 0.9156
298.15 K | 1.109 | 1.043 | 0.984 | 0.934 | 0.891 | 0.859 | 0.835 | 0.82 | 0.811
308.15 K | 0.952 | 0.899 | 0.849 | 0.807 | 0.772 | 0.746 | 0.726 | 0.714 | 0.708
318.15 K | 0.843 | 0.797 | 0.753 | 0.713 | 0.68 | 0.653 | 0.636 | 0.624 | 0.618

CCCCCC(=O)[O-].C[NH2+]c1ccccc1 + CN(C)C=O
viscosity [mPa·s], 101 kPa
Details | x1 = 0.004889 | x1 = 0.008423 | x1 = 0.01411 | x1 = 0.01792 | x1 = 0.02131 | x1 = 0.02717 | x1 = 0.0305 | x1 = 0.03458
293.15 K | 0.957 | 0.969 | 0.992 | 1.009 | 1.026 | 1.052 | 1.072 | 1.099
298.15 K | 0.916 | 0.926 | 0.946 | 0.961 | 0.975 | 0.998 | 1.016 | 1.038
303.15 K | 0.879 | 0.887 | 0.905 | 0.918 | 0.93 | 0.95 | 0.966 | 0.985
308.15 K | 0.846 | 0.854 | 0.869 | 0.881 | 0.891 | 0.909 | 0.923 | 0.94
313.15 K | 0.817 | 0.824 | 0.837 | 0.847 | 0.857 | 0.873 | 0.884 | 0.899
318.15 K | 0.791 | 0.797 | 0.809 | 0.818 | 0.826 | 0.84 | 0.85 | 0.863
323.15 K | 0.767 | 0.772 | 0.784 | 0.791 | 0.798 | 0.812 | 0.82 | 0.831

COc1ccccc1O + CN(C)c1ccccc1
303.15 K, 101 kPa
Details | viscosity [mPa·s]
x2 = 0.1 | 3.71
x2 = 0.2 | 3.21
x2 = 0.3 | 2.84
x2 = 0.4 | 2.46
x2 = 0.5 | 2.16
x2 = 0.6 | 1.89
x2 = 0.7 | 1.65
x2 = 0.8 | 1.46
x2 = 0.9 | 1.31

O=C1CCCCO1 + CNC(C)=O
viscosity [mPa·s], 101 kPa
Details | x2 = 0.0818 | x2 = 0.2377 | x2 = 0.3396 | x2 = 0.4641 | x2 = 0.5194 | x2 = 0.717 | x2 = 0.7962 | x2 = 0.8929 | x2 = 0.9596
303.15 K | 2.648 | 2.494 | 2.393 | 2.352 | 2.389 | 2.607 | 2.782 | 3.108 | 3.512
308.15 K | 2.412 | 2.288 | 2.199 | 2.203 | 2.222 | 2.422 | 2.583 | 2.896 | 3.125
313.15 K | 2.204 | 2.101 | 2.06 | 2.021 | 2.023 | 2.165 | 2.304 | 2.559 | 2.765
318.15 K | 2.02 | 1.916 | 1.862 | 1.843 | 1.862 | 1.994 | 2.111 | 2.3 | 2.491

COc1ccccc1O + CNc1ccccc1
303.15 K, 101 kPa
Details | viscosity [mPa·s]
x2 = 0.1 | 4
x2 = 0.2 | 3.72
x2 = 0.3 | 3.36
x2 = 0.4 | 3.03
x2 = 0.5 | 2.76
x2 = 0.6 | 2.44
x2 = 0.7 | 2.22
x2 = 0.8 | 1.99
x2 = 0.9 | 1.72
